In patent US9421209B2, “Kinase modulators” (Rhizen Pharmaceuticals SA, priority 2009, dated 2016):
Like-named read-outs stand apart in the source and are kept apart here.

Assays:
P110 δ/Pi3K δ = P110 δ/Pi3K δ (Homo sapiens, UniProt O00329); experiment: Fluorescent (HTRF) determination of PI3K enzyme activity, δ isoform; type: biochemical; set-up: inhibition: dose or concentration left out as unconfirmed
Outline: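 IC50 fitted from percent inhibition relative to blank and enzyme-only wells. Human PI3Kδ converts PIP2 to PIP3 after addition of 400 μM ATP solution, 30 min at room temperature. Product read by time-resolved FRET after stop and 6–18 h dark incubation with detection reagents.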

P110β = P110β (Homo sapiens, UniProt P42338); experiment: Fluorescent (HTRF) determination of PI3K enzyme activity, β isoform; type: biochemical
Outline: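 Recombinant human PI3K isoforms incubated 10 min at room temperature with inhibitor and 1.38 μM PIP2 (10 mM MgCl2, 5 mM DTT), then 30 min after adding 400 μM ATP stock. PIP3 formation detected by HTRF (665/620 nm); % inhibition versus blank and enzyme controls gives IC50.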

P110γ = P110γ (Homo sapiens, UniProt P48736); experiment: Fluorescent (HTRF) determination of PI3K enzyme activity, γ isoform; type: biochemical
From the text: (§1) Assay 1: Fluorescent determination of PI3Kinase Kinase enzyme activity
(§2) Phosphoinositide 3 kinases (PI3K) belong to a class of lipid kinases that play a critical role in the regulation of several key cellular processes. The PI3K are capable of phosphorylating the 3-hydroxy position of phosphoinositols thereby generating second messengers involved in downstream signalling events. The homogenous time resolved fluorescence (HTRF) assay allows detection of 3,4,5-triphosphate (PIP3) formed as a result of phosphorylation of phosphotidylinositol 4,5-biphosphate (PIP2) by PI3K isoforms such as α, β, γ or δ.
(§3) PI3K isoform activity for α, β, γ or δ was determined using a PI3K human HTRF™ Assay Kit (Millipore, Billerica, Mass.) with modifications. All incubations were carried out at room temperature. Briefly, 0.5 μl of 40× inhibitor (in 100% DMSO) or 100% DMSO were added to each well of a 384-well black plate (Greiner Bio-One, Monroe, N.C.) containing 14.5 μl 1× reaction buffer/PIP2 (10 mM MgCl2, 5 mM DTT, 1.38 μM PIP2) mix with or without enzyme and incubated for 10 min. After the initial incubation, 5 μl/well of 400 μM ATP was added and incubated for an additional 30 minutes. Reaction was terminated by adding 5 μl/well stop solution (Millipore, Billerica, Mass.). Five microliters of detection mix (Millipore, Billerica, Mass.) were then added to each well and was incubated for 6-18 h in the dark. HRTF ratio was measured on a microplate reader (BMG Labtech., Germany) at an excitation wavelength of 337 nm and emission wavelengths of 665 and 620 nm with an integration time of […]. Data were analyzed using Graphpad Prism (Graphpad software; San Diego Calif.) for IC50 determination. Percent inhibition was calculated based on the values for the blank and enzyme controls. The results are provided below in Table 2 & 3.

P110α = P110α (Homo sapiens, UniProt P42336); experiment: Fluorescent (HTRF) determination of PI3K enzyme activity, α isoform; type: biochemical
From the text: as §1, §2, §3

[1] = read-out: P110 δ/Pi3K δ IC 50 nM
[2] = read-out: P110 δ/ Pi3K δ IC 50 nM

P110 δ/Pi3K δ, sequence (O00329 whole entry, canonical isoform): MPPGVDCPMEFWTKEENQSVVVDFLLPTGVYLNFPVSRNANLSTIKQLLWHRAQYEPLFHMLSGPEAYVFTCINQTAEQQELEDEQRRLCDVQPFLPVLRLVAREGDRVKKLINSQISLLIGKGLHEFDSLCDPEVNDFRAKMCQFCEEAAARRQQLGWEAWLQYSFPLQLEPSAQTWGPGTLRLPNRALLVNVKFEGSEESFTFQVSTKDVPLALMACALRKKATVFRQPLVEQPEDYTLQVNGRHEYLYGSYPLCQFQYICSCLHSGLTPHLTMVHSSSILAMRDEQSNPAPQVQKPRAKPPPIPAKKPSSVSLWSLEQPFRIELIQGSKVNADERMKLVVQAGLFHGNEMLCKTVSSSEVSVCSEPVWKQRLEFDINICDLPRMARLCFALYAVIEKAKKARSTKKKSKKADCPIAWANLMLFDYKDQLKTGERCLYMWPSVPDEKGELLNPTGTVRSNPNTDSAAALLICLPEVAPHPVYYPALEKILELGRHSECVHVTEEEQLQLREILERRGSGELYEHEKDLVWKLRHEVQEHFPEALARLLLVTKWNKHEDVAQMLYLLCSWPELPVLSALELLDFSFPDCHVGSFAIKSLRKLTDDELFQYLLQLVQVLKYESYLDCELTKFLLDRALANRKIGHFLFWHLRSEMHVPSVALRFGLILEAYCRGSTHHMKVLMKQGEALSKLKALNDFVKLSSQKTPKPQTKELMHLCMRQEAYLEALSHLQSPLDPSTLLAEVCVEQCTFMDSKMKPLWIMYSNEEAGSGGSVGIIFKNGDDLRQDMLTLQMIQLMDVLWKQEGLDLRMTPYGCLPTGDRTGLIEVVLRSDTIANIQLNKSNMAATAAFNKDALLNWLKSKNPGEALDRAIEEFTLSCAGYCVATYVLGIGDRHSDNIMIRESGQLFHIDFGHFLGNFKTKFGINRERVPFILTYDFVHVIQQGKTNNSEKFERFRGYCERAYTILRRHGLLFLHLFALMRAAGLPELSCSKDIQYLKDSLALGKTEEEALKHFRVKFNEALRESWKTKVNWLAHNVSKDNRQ
P110 δ/Pi3K δ, sequence (P27986 whole entry partner, canonical isoform): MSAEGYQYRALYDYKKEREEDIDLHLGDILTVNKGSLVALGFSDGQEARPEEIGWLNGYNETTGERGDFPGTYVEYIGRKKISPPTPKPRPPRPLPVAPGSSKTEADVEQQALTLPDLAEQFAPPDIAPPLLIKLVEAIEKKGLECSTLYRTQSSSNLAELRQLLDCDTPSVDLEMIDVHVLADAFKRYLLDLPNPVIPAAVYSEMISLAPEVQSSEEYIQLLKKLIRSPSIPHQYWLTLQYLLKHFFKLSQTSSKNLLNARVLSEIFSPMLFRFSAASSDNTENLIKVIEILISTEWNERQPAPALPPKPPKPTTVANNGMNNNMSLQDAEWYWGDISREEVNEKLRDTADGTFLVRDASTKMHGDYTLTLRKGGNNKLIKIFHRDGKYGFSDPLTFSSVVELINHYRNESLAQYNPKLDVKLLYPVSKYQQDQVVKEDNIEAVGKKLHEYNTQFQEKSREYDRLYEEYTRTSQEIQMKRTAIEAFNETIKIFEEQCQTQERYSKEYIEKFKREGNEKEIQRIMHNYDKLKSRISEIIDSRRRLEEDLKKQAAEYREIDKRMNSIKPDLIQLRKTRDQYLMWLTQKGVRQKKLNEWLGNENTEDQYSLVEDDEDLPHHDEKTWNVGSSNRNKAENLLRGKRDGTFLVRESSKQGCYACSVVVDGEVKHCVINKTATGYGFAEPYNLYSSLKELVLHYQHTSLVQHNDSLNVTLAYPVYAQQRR
P110γ, sequence (P48736 whole entry, canonical isoform): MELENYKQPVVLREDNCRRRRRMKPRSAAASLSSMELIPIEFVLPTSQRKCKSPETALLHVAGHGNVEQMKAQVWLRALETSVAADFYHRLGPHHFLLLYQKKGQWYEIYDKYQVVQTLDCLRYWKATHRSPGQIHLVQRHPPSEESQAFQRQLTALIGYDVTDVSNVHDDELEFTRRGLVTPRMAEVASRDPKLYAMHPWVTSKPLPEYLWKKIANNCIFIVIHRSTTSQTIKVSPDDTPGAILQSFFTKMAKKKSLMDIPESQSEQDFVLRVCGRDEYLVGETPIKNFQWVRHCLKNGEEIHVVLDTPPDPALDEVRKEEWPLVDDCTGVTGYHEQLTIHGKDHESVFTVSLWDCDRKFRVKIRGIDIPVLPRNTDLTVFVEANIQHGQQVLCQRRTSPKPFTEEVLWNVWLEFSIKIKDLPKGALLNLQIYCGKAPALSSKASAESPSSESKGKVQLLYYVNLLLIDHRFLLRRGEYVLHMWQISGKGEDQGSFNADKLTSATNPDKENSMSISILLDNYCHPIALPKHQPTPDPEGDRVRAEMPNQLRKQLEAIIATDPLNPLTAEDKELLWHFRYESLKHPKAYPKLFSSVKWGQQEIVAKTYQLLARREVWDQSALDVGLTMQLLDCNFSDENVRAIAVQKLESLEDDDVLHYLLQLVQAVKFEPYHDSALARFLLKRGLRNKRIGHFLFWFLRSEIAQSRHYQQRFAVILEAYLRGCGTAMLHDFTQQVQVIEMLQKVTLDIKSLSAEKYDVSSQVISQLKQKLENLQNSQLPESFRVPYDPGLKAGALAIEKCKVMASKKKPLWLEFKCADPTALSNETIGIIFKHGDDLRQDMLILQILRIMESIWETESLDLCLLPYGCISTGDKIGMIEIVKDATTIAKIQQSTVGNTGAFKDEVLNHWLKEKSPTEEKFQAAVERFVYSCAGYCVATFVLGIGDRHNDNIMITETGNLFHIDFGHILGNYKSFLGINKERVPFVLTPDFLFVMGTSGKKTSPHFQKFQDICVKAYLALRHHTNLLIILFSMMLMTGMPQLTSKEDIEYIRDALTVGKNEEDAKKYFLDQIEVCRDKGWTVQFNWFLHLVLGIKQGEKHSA
P110α, sequence (P42336 whole entry, canonical isoform): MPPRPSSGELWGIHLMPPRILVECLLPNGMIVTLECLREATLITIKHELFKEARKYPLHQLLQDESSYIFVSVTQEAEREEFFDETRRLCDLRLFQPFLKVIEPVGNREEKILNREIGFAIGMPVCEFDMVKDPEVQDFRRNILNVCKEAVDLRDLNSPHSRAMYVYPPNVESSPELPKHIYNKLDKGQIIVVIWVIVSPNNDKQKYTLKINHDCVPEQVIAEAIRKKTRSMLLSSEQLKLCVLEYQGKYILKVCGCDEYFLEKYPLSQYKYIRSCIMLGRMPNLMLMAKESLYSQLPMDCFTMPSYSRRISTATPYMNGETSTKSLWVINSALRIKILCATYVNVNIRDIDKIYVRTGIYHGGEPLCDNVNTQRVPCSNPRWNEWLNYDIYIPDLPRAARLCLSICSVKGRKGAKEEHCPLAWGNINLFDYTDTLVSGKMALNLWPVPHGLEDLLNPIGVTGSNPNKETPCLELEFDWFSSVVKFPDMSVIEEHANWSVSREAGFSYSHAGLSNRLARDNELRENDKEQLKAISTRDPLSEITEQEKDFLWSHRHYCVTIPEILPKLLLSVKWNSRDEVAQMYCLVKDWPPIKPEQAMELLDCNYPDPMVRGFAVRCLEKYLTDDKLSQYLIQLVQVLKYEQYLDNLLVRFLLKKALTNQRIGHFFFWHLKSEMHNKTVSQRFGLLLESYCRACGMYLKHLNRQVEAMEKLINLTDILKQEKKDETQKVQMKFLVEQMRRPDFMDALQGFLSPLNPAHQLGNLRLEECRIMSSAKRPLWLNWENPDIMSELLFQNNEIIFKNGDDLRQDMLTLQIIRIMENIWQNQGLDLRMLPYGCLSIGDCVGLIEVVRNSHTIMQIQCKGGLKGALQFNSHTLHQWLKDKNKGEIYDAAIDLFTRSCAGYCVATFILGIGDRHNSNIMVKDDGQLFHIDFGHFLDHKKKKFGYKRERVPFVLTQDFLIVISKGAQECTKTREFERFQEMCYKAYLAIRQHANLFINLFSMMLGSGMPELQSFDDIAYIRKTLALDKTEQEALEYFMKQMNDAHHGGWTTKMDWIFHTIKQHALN
P110α, sequence (P27986 whole entry partner, canonical isoform): as the sequence (P27986 whole entry partner, canonical isoform) above
P110β, sequence (P42338 whole entry, canonical isoform): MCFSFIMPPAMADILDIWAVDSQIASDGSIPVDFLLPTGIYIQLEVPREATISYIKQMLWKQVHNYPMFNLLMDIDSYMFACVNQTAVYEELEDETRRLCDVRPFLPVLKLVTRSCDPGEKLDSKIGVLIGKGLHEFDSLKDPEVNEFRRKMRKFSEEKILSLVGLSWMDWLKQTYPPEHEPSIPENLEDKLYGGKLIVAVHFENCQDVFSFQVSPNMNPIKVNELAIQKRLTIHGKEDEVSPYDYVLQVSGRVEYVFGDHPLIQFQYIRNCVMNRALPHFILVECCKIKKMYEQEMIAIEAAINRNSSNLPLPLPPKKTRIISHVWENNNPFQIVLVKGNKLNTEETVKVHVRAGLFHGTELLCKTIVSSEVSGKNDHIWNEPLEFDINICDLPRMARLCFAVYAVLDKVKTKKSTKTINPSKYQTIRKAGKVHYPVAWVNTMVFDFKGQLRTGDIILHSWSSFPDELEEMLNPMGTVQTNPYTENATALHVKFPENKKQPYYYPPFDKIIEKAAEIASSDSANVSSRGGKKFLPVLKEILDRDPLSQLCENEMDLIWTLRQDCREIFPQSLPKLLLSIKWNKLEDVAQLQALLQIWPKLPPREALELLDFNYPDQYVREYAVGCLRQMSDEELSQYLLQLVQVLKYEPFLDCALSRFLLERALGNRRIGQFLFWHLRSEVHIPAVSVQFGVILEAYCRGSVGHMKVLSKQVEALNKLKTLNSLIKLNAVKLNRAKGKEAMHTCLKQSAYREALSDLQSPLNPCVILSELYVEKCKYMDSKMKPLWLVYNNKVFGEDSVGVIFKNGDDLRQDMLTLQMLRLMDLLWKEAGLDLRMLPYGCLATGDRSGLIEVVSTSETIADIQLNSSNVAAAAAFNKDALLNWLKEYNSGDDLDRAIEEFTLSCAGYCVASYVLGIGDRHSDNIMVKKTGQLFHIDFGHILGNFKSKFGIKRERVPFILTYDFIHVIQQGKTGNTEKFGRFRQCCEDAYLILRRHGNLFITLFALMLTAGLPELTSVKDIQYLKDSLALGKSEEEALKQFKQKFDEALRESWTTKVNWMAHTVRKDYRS
P110β, sequence (P27986 whole entry partner, canonical isoform): as the sequence (P27986 whole entry partner, canonical isoform) above

inhibition (P110 δ/Pi3K δ) | inhibition at 1 µM (P110β) | inhibition at 1 µM (P110γ) | melting point | inhibition at 1 µM (P110α) | inhibition at 1 µM (P110 δ/Pi3K δ) | IC50 (P110 δ/Pi3K δ; [1]) | IC50 (P110 δ/Pi3K δ; [2]) | Compound
< 50% | 25 to 50% | < 25% | 218 to 220 °C |  |  |  |  | CC(c1oc2ccccc2c(=O)c1-c1cccc(F)c1)n1nc(-c2cccc(N(C)C)c2)c2c(N)ncnc21 (stereo not drawn) [Example 142, 2-(1-(4-amino-3-(3-(dimethylamino)phenyl)-1H-pyrazolo[3,4-d]pyrimidin-1-yl)ethyl)-3-(3-fluorophenyl)-4H-chromen-4-one]
50 to 100% | < 25% | 25 to 50% | 238 to 241 °C | < 25% |  |  |  | CC(c1oc2ccccc2c(=O)c1-c1cccc(F)c1)n1nc(-c2ccc3c(c2)CCO3)c2c(N)ncnc21 (stereo not drawn) [Example 109, 2-(1-(4-amino-3-(2,3-dihydrobenzofuran-5-yl)-1H-pyrazolo[3,4-d]pyrimidin-1-yl)ethyl)-3-(3-fluorophenyl)-4H-chromen-4-one]
 | < 25% | < 25% |  | < 25% | 50 to 100% | < 250 nM |  | CC(c1oc2ccccc2c(=O)c1-c1cccc(F)c1)n1cnc2c(N)ncnc21 (stereo not drawn) [Example 32, 2-(1-(6-Amino-9H-purin-9-yl)ethyl)-3-(3-fluorophenyl)-4H-chromen-4-one]
< 50% | 25 to 50% | 25 to 50% | 214 to 216 °C |  |  |  |  | CC(c1oc2ccccc2c(=O)c1-c1cccc(F)c1)n1nc(-c2ccc(OCc3ccccc3)c(Cl)c2)c2c(N)ncnc21 (stereo not drawn) [Example 140, 2-(1-(4-amino-3-(4-(benzyloxy)-3-chlorophenyl)-1H-pyrazolo[3,4-d]pyrimidin-1-yl)ethyl)-3-(3-fluorophenyl)-4H-chromen-4-one]
50 to 100% | 25 to 50% | 50 to 100% | 234 to 236 °C |  |  |  | < 250 nM | Cc1n[nH]c2cc(-c3nn(C(C)c4oc5ccc(F)cc5c(=O)c4-c4cccc(F)c4)c4ncnc(N)c34)ccc12 (stereo not drawn) [Example 108, 2-(1-(4-amino-3-(3-methyl-1H-indazol-6-yl)-1H-pyrazolo[3,4-d]pyrimidin-1-yl)ethyl)-6-fluoro-3-(3-fluorophenyl)-4H-chromen-4-one]
50 to 100% | 50 to 100% | 50 to 100% | 253 to 255 °C |  |  |  | < 250 nM | Cc1n[nH]c2cc(-c3nn(C(C)c4oc5ccc(F)cc5c(=O)c4-c4ccccc4)c4ncnc(N)c34)ccc12 (stereo not drawn) [Example 105, 2-(1-(4-amino-3-(3-methyl-1H-indazol-6-yl)-1H-pyrazolo[3,4-d]pyrimidin-1-yl)ethyl)-6-fluoro-3-phenyl-4H-chromen-4-one]
< 50% | 25 to 50% | < 25% | 216 to 218 °C |  |  |  |  | CCOc1ccc(-c2nn(C(C)c3oc4ccccc4c(=O)c3-c3cccc(F)c3)c3ncnc(N)c23)cc1F (stereo not drawn) [Example 143, 2-(1-(4-amino-3-(4-ethoxy-3-fluorophenyl)-1H-pyrazolo[3,4-d]pyrimidin-1-yl)ethyl)-3-(3-fluorophenyl)-4H-chromen-4-one]
 | 50 to 100% | < 25% |  | < 25% |  |  |  | COc1cccc(-c2nn(C(C)c3oc4ccccc4c(=O)c3-c3cccc(F)c3)c3ncnc(N)c23)c1 (stereo not drawn) [Example 51, 2-(1-(4-amino-3-(3-methoxyphenyl)-1H-pyrazolo[3,4-d]pyrimidin-1-yl)ethyl)-3-(3-fluorophenyl)-4H-chromen-4-one]
50 to 100% | 25 to 50% | 50 to 100% | 198 to 200 °C |  |  |  |  | CC(C)Oc1ccc(-c2nn(C(C)c3oc4ccccc4c(=O)c3-c3cccc(F)c3)c3ncnc(N)c23)cc1Cl (stereo not drawn) [Example 141, 2-(1-(4-amino-3-(3-chloro-4-isopropoxyphenyl)-1H-pyrazolo[3,4-d]pyrimidin-1-yl)ethyl)-3-(3-fluorophenyl)-4H-chromen-4-one]
 | 25 to 50% | 25 to 50% | 203 to 206 °C |  | 50 to 100% | < 250 nM |  | C[C@H](Nc1ncnc2[nH]cnc12)c1oc2ccc(F)cc2c(=O)c1-c1cccc(F)c1 [Example 74, (S)-2-(1-(9H-purin-6-ylamino)ethyl)-6-fluoro-3-(3-fluorophenyl)-4H-chromen-4-one]
50 to 100% | < 25% | 50 to 100% | 270 to 273 °C |  |  |  |  | CCc1n[nH]c2cc(-c3nn(C(C)c4oc5ccccc5c(=O)c4-c4cccc(F)c4)c4ncnc(N)c34)ccc12 (stereo not drawn) [Example 110, 2-(1-(4-amino-3-(3-ethyl-1H-indazol-6-yl)-1H-pyrazolo[3,4-d]pyrimidin-1-yl)ethyl)-3-(3-fluorophenyl)-4H-chromen-4-one]
 | < 25% | 25 to 50% |  | < 25% |  |  | < 250 nM | Cc1n[nH]c2cc(-c3nn([C@H](C)c4oc5ccccc5c(=O)c4-c4cccc(F)c4)c4ncnc(N)c34)ccc12 (single isomer, unassigned) [Example 128, (+)-2-(1-(4-amino-3-(3-methyl-1H-indazol-6-yl)-1H-pyrazolo[3,4-d]pyrimidin-1-yl)ethyl)-3-(3-fluorophenyl)-4H-chromen-4-one]
< 50% | < 25% |  | 194 to 197 °C | < 25% |  |  |  | C[C@@H](Nc1ncnc2[nH]cnc12)c1oc2ccc(F)cc2c(=O)c1-c1cccc(F)c1 [Example 124, (R)-2-(1-(9H-purin-6-ylamino)ethyl)-6-fluoro-3-(3-fluorophenyl)-4H-chromen-4-one]
< 50% | 25 to 50% | 25 to 50% | 218 to 220 °C |  |  |  |  | CC(c1oc2ccccc2c(=O)c1-c1cccc(F)c1)n1nc(-c2ccc(Oc3ccccc3)cc2)c2c(N)ncnc21 (stereo not drawn) [Example 139, 2-(1-(4-amino-3-(4-phenoxyphenyl)-1H-pyrazolo[3,4-d]pyrimidin-1-yl)ethyl)-3-(3-fluorophenyl)-4H-chromen-4-one]
50 to 100% | < 25% |  | 268 to 270 °C | < 25% |  |  |  | CCC(c1oc2ccccc2c(=O)c1-c1cccc(F)c1)n1nc(-c2ccc3c(C)n[nH]c3c2)c2c(N)ncnc21 (stereo not drawn) [Example 116, 2-(1-(4-amino-3-(3-methyl-1H-indazol-6-yl)-1H-pyrazolo[3,4-d]pyrimidin-1-yl)propyl)-3-(3-fluorophenyl)-4H-chromen-4-one]
50 to 100% | 25 to 50% |  | 244 to 247 °C | 25 to 50% |  |  |  | CC(c1oc2ccccc2c(=O)c1-c1cccc(F)c1)n1nc(-c2ccc(O)c(F)c2)c2c(N)ncnc21 (stereo not drawn) [Example 85, 2-(1-(4-amino-3-(3-fluoro-4-hydroxyphenyl)-1H-pyrazolo[3,4-d]pyrimidin-1-yl)ethyl)-3-(3-fluorophenyl)-4H-chromen-4-one]
< 50% | < 25% | 25 to 50% | 254 to 256 °C |  |  |  |  | Cc1n[nH]c2ccc(-c3nn(C(C)c4oc5ccccc5c(=O)c4-c4cccc(F)c4)c4ncnc(N)c34)cc12 (stereo not drawn) [Example 106, 2-(1-(4-amino-3-(3-methyl-1H-indazol-5-yl)-1H-pyrazolo[3,4-d]pyrimidin-1-yl)ethyl)-3-(3-fluorophenyl)-4H-chromen-4-one]
